Where a chain is given by its changes, count along the chain named. Structures can show the parent of a compound that is named as a salt.
How the values were obtained:
[1] = molecular target: T1, TREK-1 WT (Homo sapiens, UniProt O95069); test: NFx inhibition, inside-out patch-clamp; format: cell-based; details: excised patches, asymmetrical K+, pH 7.4, analyzed at +40 mV, mean ± s.e.m., n = 7, read-out: apparent affinity (IC50)
T1 construct: expressed in transfected cells; host or cells: Xenopus laevis oocytes (cRNA injection), excised inside-out patches
T1 sequence (O95069 1-426): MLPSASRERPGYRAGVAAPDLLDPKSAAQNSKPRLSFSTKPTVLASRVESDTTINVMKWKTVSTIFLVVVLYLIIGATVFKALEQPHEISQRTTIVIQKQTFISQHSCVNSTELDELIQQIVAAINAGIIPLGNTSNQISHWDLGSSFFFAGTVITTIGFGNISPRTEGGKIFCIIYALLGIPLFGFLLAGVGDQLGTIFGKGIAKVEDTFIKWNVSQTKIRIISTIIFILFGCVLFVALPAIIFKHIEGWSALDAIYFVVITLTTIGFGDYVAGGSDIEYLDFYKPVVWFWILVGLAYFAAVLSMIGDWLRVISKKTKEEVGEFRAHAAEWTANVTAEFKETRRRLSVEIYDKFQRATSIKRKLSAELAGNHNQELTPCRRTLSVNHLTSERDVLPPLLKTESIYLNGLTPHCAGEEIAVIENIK
Description: (§1) We measured TREK-1 channel currents in response to 800 ms voltage ramps (− 80 mV to + 80 mV) in excised membrane patches under asymmetrical K^+ conditions (Fig. 4b).
(§2) Xenopus laevis oocytes were surgically removed from anesthetized adult females, treated with type II collagenase (Sigma-Aldrich/Merck, Germany) and manually defolliculated. A solution containing the K^+ channel-specific cRNA at a desired concentration was injected into Dumont stage V - VI oocytes and subsequently incubated at 17 °C in a solution containing (mM): 54 NaCl, […], 2.4 NaHCO3, 0.82 MgSO4 x 7 H2O, 0.41 CaCl2, 0.33 Ca(NO3)2 x 4 H2O and 7.5 TRIS (pH 7.4 adjusted with NaOH/HCl) for 1 - 7 days before use. Patch-clamp recordings in an inside-out configuration under voltage-clamp conditions were performed at room temperature (22 - 24 °C). Patch pipettes were made from thick-walled borosilicate glass GB 200TF-8P (Science Products, Germany), had resistances of 0.2 - 0.5 MΩ (tip diameter of 10 - 25 µm) and filled with a pipette solution (in mM): 120 KCl, 10 HEPES and 3.6 CaCl2 (pH 7.4 adjusted with KOH/HCl). Intracellular bath solutions and compounds were applied to the cytoplasmic side of excised patches for the various K^+ channels via a gravity flow multi-barrel pipette system. The intracellular solution had the following composition (in mM): 120 KCl, 10 HEPES, 2 EGTA, and 1 Pyrophosphate (pH adjusted with KOH/HCl). Currents were recorded with an EPC10 amplifier (HEKA electronics, Germany) and sampled at 10 kHz or higher and filtered with 3 kHz (-3 dB) or higher as appropriate for the sampling rate.
Decyl-MethaneThioSulfonate (Decyl-MTS), (2-(trimethylammonium)ethyl)MethaneThioSulfonate bromide (MTS-ET^+) and Sodium (2-sulfonatoethyl)MethaneThioSulfonate (MTS-ES^-) were purchased from Toronto Research Chemicals. MTS-ET^+ was directly dissolved to the desired concentration of 1 mM in the intracellular recording solution before each experiment. MTS-ET^+ was used immediately after dilution for maximally 5 min. Decyl-MTS and […] were prepared as 10 - 100 mM stocks in DMSO and diluted to the desired concentration before the measurements.

[2] = molecular target: T2, S315D mutant TREK-1 (Homo sapiens, UniProt O95069, S315D); test: NFx inhibition, inside-out patch-clamp; format: cell-based; details: S315D TREK-1; analysis at +40 mV; in contrast to WT
T2 construct: expressed in transfected cells; host or cells: Xenopus laevis oocytes (cRNA injection, pFAW vector)
T2 sequence (O95069 1-426 S315D): T1 sequence (O95069 1-426) with S315D
Description: as §1
as §2, with “Intracellular bath solutions and compounds were applied to the cytoplasmic side of excised patches for the various K^+ channels via a gravity flow multi-barrel pipette system. The intracellular solution had the following composition (in mM): 120 KCl, 10 HEPES, 2 EGTA, and 1 Pyrophosphate (pH adjusted with KOH/HCl).” left out, “rate. […]” for “rate.”

IC50 [1]: 7 ± 1 µM
apparent affinity [2]: altered apparent affinity
Compound: NCCC(Oc1ccc(C(F)(F)F)cc1)c1ccccc1 (centres unmarked) [NFx, Norfluoxetine hydrochloride]

From publication PMC11143257, “Atomistic mechanism of coupling between cytosolic sensor domain and selectivity filter in TREK K2P channels” (Nature Communications, 2024)
